Laboratory results published in patent US20230059107A1, “STABLE TOPICAL COMPOSITIONS OF FENOLDOPAM” (TARO PHARMACEUTICAL INDUSTRIES LTD., priority 2019, published 2023).
Read-outs that look alike come from different tables or passages of the source. Marks after values point to notes of the source that are not given here.

Key:
[1] = tested on: inflammatory markers of the psoriatic xenotransplants (Ki-67, HLA-DR, CD8, CD4, IL-17); experiment: Human skin xenotransplant model of psoriasis: immunohistochemical staining for Ki-67, HLA-DR, CD8, CD4 and IL-17; type: in vivo
Protocol: (§1) Fourteen days after starting the treatment (four weeks following the injections), blood samples are taken and the skin is harvested. The grafts are analyzed histologically and immunohistochemically for psoriatic parameters.
We then stained skin sections derived from the various human xenotransplants for Ki-67 and HLA-DR: the first, a marker of cellular hyperproliferation and the second, for immune stimulation. Strong expression of Ki-67 was observed along the lower part of the epidermis in all control and vehicle groups and in the non-responders FMT xenotransplants. […] However, weak or absent HLA-DR expression was observed along the epidermis in the responders transplants treated with FMT.
Negative expression—no staining Mild—minor level of cell infiltrates of positive cells along the dermis Dense—intense level of cell infiltrates of positive cells along the dermis
To characterize the inflammatory infiltrate in the skin, we examined the expression of CD8, CD4 and IL-17+cells, which mark T lymphocytes (FIG. 1 and Tables 15, 16).
Negative expression—no staining Mild—minor level of cell infiltrates of positive cells along the dermis Dense—intense level of cell infiltrates of CD8+, CD4+IL17+positive cells along the dermis

[2] = tested on: psoriatic xenotransplants (normal human skin grafted, psoriatic patient T-cell injected); experiment: Human skin xenotransplant model of psoriasis in beige-SCID mice: histological evaluation and epidermal thickness; type: in vivo; conditions: for Mean epidermal thickness: mean of the group
Protocol: The efficacy of the topical stable Fenoldopam compositions developed according to the current disclosure for the treatment of psoriasis is evaluated in a human skin xenotransplant model in mice. Human skin xenotransplant models are optimally suited for performing preclinical assays that explore novel anti-psoriatic agents/treatment strategies before initiating clinical trials. The purpose of this study is to evaluate the effectiveness of Fenoldopam mesylate formulations on the histological parameters of psoriasis in the human T-cell-driven model of psoriasis.
The patients included in the study have classic plaque psoriasis, and were not treated for the disease. Normal skin from one healthy volunteer is obtained for grafting.
Healthy human skin pieces with a width of 0.4 mm and surface area of 1.5×1.5 cm are provided from residual skin of routine plastic surgery procedures from the Plastic Surgery Department of the Rambam Health Care Campus, Haifa, Israel. In addition, 20 mL blood samples were taken from the psoriatic patients.
The normal healthy human donor skin is transplanted onto the Beige-severe combined immuno-deficient mice (SCID) (weight ˜20 g).
The mice are divided into several treatment groups. Mice of each group receive activated allogeneic T-cells expressing high levels of NK cells receptors from the psoriatic donor.
Peripheral Blood Mononuclear Cells (PBMCs) from the psoriatic patients' blood are isolated and cultured in the presence of a high dose of IL-2 (100 U/mL of media) for 14 days to activate allogeneic T-cells expressing high levels of NK cells receptors.
Four weeks following the engraftment, each mouse is injected with 1×10^7 activated allogeneic IL2-enriched PBMCS from psoriatic patients (1×10^7 cells injected/mouse). Cells from different psoriasis patients are distributed equally between treatment groups. Each patient is represented in each treatment group.
Two weeks following the injections, the mice are divided randomly and treated daily for 14 constitutive days with the different topical formulations.
as §1
In this model, a psoriasis-like phenotype is induced in normal human skin grafted onto beige-severe combined immunodeficient mice by intradermal injection of natural killer/T-cells derived from psoriatic patients (Gilhar et al., J Invest Dermatol. 2002 Aug;119(2):384-91.).
The purpose of these further experiments was to verify the therapeutic effect of FMT and compare the therapeutic effects of two doses (1% versus 2%) of two different formulations (cream versus gel).
In order to address the aim of the experiment, the psoriatic humanized mice were established. 10 psoriatic patients were recruited (seven males and three females), mean age 44 years, ranging from 22 to 61 years for testing. All patients had classic plaque psoriasis. None of the patients had been treated. Normal skin from one healthy volunteer was obtained for grafting.
The experiment comprised 72 mice divided into eight groups (Table 10). All of the mice were injected with T-cells expressing NK receptors obtained from psoriatic patients according to the protocol. Thereafter, the mice were separated as follows: Group 1: non-treated control; Group 2: dexamethasone; Group 3: FMT Gel 1%; Group 4: FMT Gel 2%; Group 5: Gel (vehicle); Group 6: FMT Cream 1%; Group 7: FMT Cream 2%; and Group 8: Cream (vehicle). All groups were treated from day 14 until day 28 post T-cells injection.

[3] = cited from earlier work
[4] = intense level of cell infiltrates
[5] = minor level of cell infiltrates
[6] = topical bid, day 14 until day 28 post T-cells injection

**Q.** For `C[C@@H]1C[C@H]2[C@@H]3CCC4=CC(=O)C=C[C@]4(C)[C@@]3(F)[C@@H](O)C[C@]2(C)[C@@]1(O)C(=O)CO` [Dexamethasone], which “Epidermal HLA-DR Expression: Diffuse (grafts/total)” value ([1]; Diffuse—more than 50% of the epidermal area) is on record?
**A.** 0/6

**Q.** What about the “Epidermal HLA-DR Expression: Focal (grafts/total)” value ([1]; Focal—less than 50% of the epidermal area) of the same compound?
**A.** 1/6

**Q.** And the “CD4 Expression: Dense” value ([1]; Non responders grafts)?
**A.** 0/6

**Q.** And the “CD4 Expression: Negative/Mild” value ([1]; Non responders grafts)?
**A.** 0/6

**Q.** And the “CD8 Expression: Dense” value ([1]; Non responders grafts)?
**A.** 0/6

**Q.** What about the “CD8 Expression: Negative/Mild” value ([1]; Non responders grafts) of the same compound?
**A.** 0/6

**Q.** And the “Dermal HLA-DR Expression: Dense” value ([1]; Non responders grafts)?
**A.** 0/6

**Q.** What about the “Dermal HLA-DR Expression: Negative/Mild” value ([1]; Non responders grafts) of the same compound?
**A.** 0/6

**Q.** And the “IL-17 Expression: Dense” value ([1]; Non responders grafts)?
**A.** 0/6

**Q.** What about the “IL-17 Expression: Negative/Mild” value ([1]; Non responders grafts) of the same compound?
**A.** 0/6

**Q.** What about the “CD4 Expression: Dense” value ([1]; Responders grafts) of the same compound?
**A.** 0/6

**Q.** And the “CD4 Expression: Negative/Mild” value ([1]; Responders grafts)?
**A.** 6/6

**Q.** And the “CD8 Expression: Dense” value ([1]; Responders grafts)?
**A.** 0/6

**Q.** What about the “CD8 Expression: Negative/Mild” value ([1]; Responders grafts) of the same compound?
**A.** 6/6

**Q.** And the “Dermal HLA-DR Expression: Dense” value ([1]; Responders grafts)?
**A.** 0/6

**Q.** And the “Dermal HLA-DR Expression: Negative/Mild” value ([1]; Responders grafts)?
**A.** 6/6

**Q.** What about the “IL-17 Expression: Dense” value ([1]; Responders grafts) of the same compound?
**A.** 0/6

**Q.** And the “IL-17 Expression: Negative/Mild” value ([1]; Responders grafts)?
**A.** 6/6

**Q.** And the “Epidermal HLA-DR Expression: Negative (grafts/total)” value ([1]; in vivo)?
**A.** 5/6

**Q.** And the “CD4 positive cells along the dermis: Dense” value [1, 4]?
**A.** 0/10

**Q.** What about the “CD8 positive cells along the dermis: Dense” value [1, 4] of the same compound?
**A.** 0/10

**Q.** And the “IL-17 positive cells along the dermis: Dense” value [1, 4]?
**A.** 0/10

**Q.** What about the “Dermal HLA-DR Expression: Dense (grafts/total)” value ([1]; intense level of cell infiltrates of positive cells along the dermis) of the same compound?
**A.** 0/6

**Q.** And the “CD4 positive cells along the dermis: Mild” value [1, 5]?
**A.** 2/6

**Q.** And the “CD8 positive cells along the dermis: Mild” value [1, 5]?
**A.** 1/6

**Q.** What about the “IL-17 positive cells along the dermis: Mild” value [1, 5] of the same compound?
**A.** 1/6

**Q.** What about the “Dermal HLA-DR Expression: Mild (grafts/total)” value ([1]; minor level of cell infiltrates of positive cells along the dermis) of the same compound?
**A.** 2/6

**Q.** What about the “CD4 positive cells along the dermis: Negative” value ([1]; no staining) of the same compound?
**A.** 4/6

**Q.** And the “CD8 positive cells along the dermis: Negative” value ([1]; no staining)?
**A.** 5/6

**Q.** And the “Dermal HLA-DR Expression: Negative (grafts/total)” value ([1]; no staining)?
**A.** 4/6

**Q.** And the “IL-17 positive cells along the dermis: Negative” value ([1]; no staining)?
**A.** 5/6

**Q.** What about the Epidermal thickness ([2]; Donor 1) of the same compound?
**A.** 338 μm

**Q.** And the Epidermal thickness ([2]; Donor 2)?
**A.** 280 μm

**Q.** What about the Epidermal thickness ([2]; Donor 3) of the same compound?
**A.** 290 μm

**Q.** And the Epidermal thickness ([2]; Donor 4)?
**A.** 300 μm

**Q.** And the Epidermal thickness ([2]; Donor 5)?
**A.** 305 μm

**Q.** What about the Epidermal thickness ([2]; Donor 6) of the same compound?
**A.** 260 μm

**Q.** What about the Mean epidermal thickness ([2]; listed as Dexa) of the same compound?
**A.** 295* μm

**Q.** What about the Mean epidermal thickness ([2]; listed as dexamethasone) of the same compound?
**A.** 295 ±26 μm

**Q.** And the “Complete Recovery (grafts/total)” value [2, 6]?
**A.** 5/6

**Q.** What about the “Partial Recovery (grafts/total)” value [2, 6] of the same compound?
**A.** 1/6

**Q.** And the “Psoriatic Features (grafts/total)” value [2, 6]?
**A.** 0/6

**Q.** Which results are given for `CS(=O)(=O)O.Oc1ccc(C2CNCCc3c2cc(O)c(O)c3Cl)cc1` (centres unmarked) [Fenoldopam mesylate, 6-chloro-2,3,4,5-tetrahydro-1-(4-hydroxyphenyl)-1H-3-benzazepine-7,8-diol, methanesulfonate]?
**A.** solubility ([3]; in propylene glycol): soluble; solubility ([3]; in water, ethanol and methanol): sparingly soluble
